The record followed here is patent publication US12673942B2, “Azabicyclyl-substituted heterocycles as fungicides” (Bayer Aktiengesellschaft, priority 2020, dated 2026).

A short description of this data set: Measurement of Log P values by HPLC on reversed phase columns (EEC directive 79/831 Annex V.A8). In kind it is physicochemical. The method, then:
Measurement of Log P values as provided herein was performed according to EEC directive 79/831 Annex V.A8 by HPLC (High Performance Liquid Chromatography) on reversed phase columns with the following methods: • ^[a] Log P value is determined by measurement of LC-UV, in an acidic range, with 0.1% formic acid in water and acetonitrile as eluent (linear gradient from 10% acetonitrile to 95% acetonitrile). • ^[b] Log P value is determined by measurement of LC-UV, in a neutral range, with 0.001 molar ammonium acetate solution in water and acetonitrile as eluent (linear gradient from 10% acetonitrile to 95% acetonitrile). • ^[c] Log P value is determined by measurement of LC-UV, in an acidic range, with 0.1% phosphoric acid and acetonitrile as eluent (linear gradient from 10% acetonitrile to 95% acetonitrile).
If more than one Log P value is available within the same method, all the values are given and separated by “+”. […]

The mark [1] stands for this setting: method [a]: LC-UV, acidic range, 0.1% formic acid in water and acetonitrile as eluent.

The molecule `Cc1ccc(CC(CON2C(=O)c3ccccc3C2=O)NC(=O)c2c(Oc3cccc(Cl)c3)nnc3ccccc23)c(C)c1` (racemic) [Compound 3-01, 3-(3-chlorophenoxy)-N-{(2RS)-1-(2,4-dimethylphenyl)-3-[(1,3-dioxo-1,3-dihydro-2H-isoindol-2-yl)oxy]propan-2-yl}cinnoline-4-carboxamide] displayed a chromatographic logP under setting [1] of 4.49.
As for `Cc1ccc(C[C@H](CON2C(=O)c3ccccc3C2=O)NC(=O)c2c(Oc3cccc(C(F)(F)F)c3)cnc3ccccc23)c(C)c1` (racemic) [Compound 3-02], under setting [1], the chromatographic logP came out at 4.72.
With `C#Cc1cccc(Oc2cnc3ccccc3c2C(=O)N[C@@H](CON2C(=O)c3ccccc3C2=O)Cc2ccc(C)cc2C)c1` (racemic) [Compound 3-03], under setting [1], the chromatographic logP came out at 4.44.
For `Cc1ccc(C[C@H](CON2C(=O)c3ccccc3C2=O)NC(=O)c2c(Oc3cccc(C4CC4)c3F)cnc3ccccc23)c(C)c1` (racemic) [Compound 3-04], the chromatographic logP under setting [1] was 4.96.
As for `C=Cc1cccc(Oc2cnc3ccccc3c2C(=O)N[C@@H](CON2C(=O)c3ccccc3C2=O)Cc2ccc(C)cc2C)c1` (racemic) [Compound 3-05], the chromatographic logP under setting [1] was determined as 4.78.
`Cc1ccc(C[C@H](CON2C(=O)c3ccccc3C2=O)NC(=O)c2c(Oc3cccc(Br)c3F)cnc3ccccc23)c(C)c1` (racemic) [Compound 3-06] came in with a chromatographic logP under setting [1] of 4.78.
For `C#Cc1cccc(Oc2cnc3ccccc3c2C(=O)N[C@@H](CON2C(=O)c3ccccc3C2=O)Cc2ccc(C)cc2Cl)c1` (racemic) [Compound 3-07], under setting [1], the chromatographic logP came out at 4.47.
In the case of `C=Cc1cccc(Oc2cnc3ccccc3c2C(=O)N[C@@H](CON2C(=O)c3ccccc3C2=O)Cc2ccc(C)cc2Cl)c1` (racemic) [Compound 3-08], the chromatographic logP under setting [1] turned out to be 4.71.
Same read-out and setting: in the case of `Cc1ccc(C[C@H](CON2C(=O)c3ccccc3C2=O)NC(=O)c2c(Oc3cccc(C(F)(F)F)c3)nnc3c2CCCC3)c(C)c1` (racemic) [Compound 3-09] it was 4.59; in that of `Cc1ccc(C[C@H](CON2C(=O)c3ccccc3C2=O)NC(=O)c2c(Oc3cccc(Cl)c3F)nnc3c2CCCC3)c(C)c1` (racemic) [Compound 3-10], 4.47; in that of `Cc1ccc(C[C@H](CON2C(=O)c3ccccc3C2=O)NC(=O)c2c(Oc3cccc(Br)c3F)nnc3c2CCCC3)c(C)c1` (racemic) [Compound 3-11], 4.51.
Molecule `Cc1ccc(C[C@H](CON2C(=O)c3ccccc3C2=O)NC(=O)c2c(Oc3cccc(C(F)(F)F)c3)nnc3c2CCC3)c(C)c1` (racemic) [Compound 3-12] registered a chromatographic logP under setting [1] of 4.47.
Under setting [1], `Cc1ccc(C[C@H](CON2C(=O)c3ccccc3C2=O)NC(=O)c2c(Oc3cccc(C(F)F)c3)nnc3c2CCCC3)c(C)c1` (racemic) [Compound 3-13] came in with a chromatographic logP of 4.13.
Still for that read-out and setting: the figure for `Cc1ccc(C[C@H](CON2C(=O)c3ccccc3C2=O)NC(=O)c2c(Oc3cccc(C4CC4)c3F)nnc3c2CCC3)c(C)c1` (racemic) [Compound 3-14] is 4.56.
Under setting [1], `Cc1ccc(C[C@@H](CON)NC(=O)c2c(Oc3cccc(C(F)(F)F)c3)nnc3cc(C)ccc23)c(C)c1` (racemic) [Compound 4-01] had a LogP of 3.51 and a chromatographic logP of 3.42. Further, the chromatographic logP (method [b]: LC-UV, neutral range, 0.001 molar ammonium acetate solution in water and acetonitrile as eluent) came out at 3.62.
For `Cc1ccc(C[C@H](CON)NC(=O)c2c(Oc3cccc(C(F)(F)F)c3)cnc3ccccc23)c(C)c1` (racemic) [Compound 4-02], the chromatographic logP under setting [1] came to 3.17.
The same measure, in the same setting: in the case of `Cc1ccc(CC(CON)NC(=O)c2c(Oc3cccc(Cl)c3)nnc3ccccc23)c(C)c1` (racemic) [Compound 4-03, N-[(2RS)-1-(aminooxy)-3-(2,4-dimethylphenyl)propan-2-yl]-3-(3-chloro-phenoxy)cinnoline-4-carboxamide] it was 2.8; in that of `C#Cc1cccc(Oc2cnc3ccccc3c2C(=O)N[C@@H](CON)Cc2ccc(C)cc2C)c1` (racemic) [Compound 4-04], 2.83.
